According to ChEMBL document CHEMBL1201862, “PubChem BioAssay data set” (2004):
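Protocol summary: plate cells (96-well), add compound at 5 concentrations, incubate 48 h, interpolate endpoints linearly. GI50 is the concentration that inhibits growth by half.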 Activity calls are given as the source filed them. Rule as the data show it: active = GI50 up to about 1.1 µM and inactive = higher.

Legend:
Assay in all cases: DTP human tumour cell line panel, 48 h
RPMI-8226 = test system: RPMI-8226
HCT-116 = test system: HCT-116
MOLT-4 = test system: MOLT-4
M14 = test system: M14
Malme-3M = test system: Malme-3M
HCC 2998 = test system: HCC 2998
ACHN = test system: ACHN
KM12 = test system: KM12
HL-60 = test system: HL-60
SN12C = test system: SN12C
LOX IMVI = test system: LOX IMVI
HCT-15 = test system: HCT-15
U-251 = test system: U-251
CAKI-1 = test system: CAKI-1
OVCAR-3 = test system: OVCAR-3
A498 = test system: A498
HOP-92 = test system: HOP-92
OVCAR-4 = test system: OVCAR-4
A549 = test system: A549
NCI-H522 = test system: NCI-H522

Structure (SMILES)	GI50 (RPMI-8226)	GI50 (HCT-116)	GI50 (MOLT-4)	GI50 (M14)	GI50 (Malme-3M)	GI50 (HCC 2998)	GI50 (ACHN)	GI50 (KM12)	GI50 (HL-60)	GI50 (SN12C)	GI50 (LOX IMVI)	GI50 (HCT-15)	GI50 (U-251)	GI50 (CAKI-1)	GI50 (OVCAR-3)	GI50 (A498)	GI50 (HOP-92)	GI50 (OVCAR-4)	GI50 (A549)	GI50 (NCI-H522)
CSc1ccc(/C=C2\CN(C)C/C(=C\c3ccc(SC)cc3)C2=O)cc1	2.52 µM (inactive)	20.4 µM (inactive)	19.4 µM (inactive)	92.3 µM (inactive)	> 100 µM (inactive)	79.4 µM (inactive)	40.6 µM (inactive)	8.75 µM (inactive)	21.1 µM (inactive)	23.3 µM (inactive)	6.47 µM (inactive)	32 µM	4.65 µM (inactive)	> 100 µM (inactive)	13.8 µM (inactive)	46.8 µM (inactive)	4.23 µM (inactive)	> 100 µM (inactive)	> 100 µM (inactive)	
CCOP(=O)(Nc1ccc(-c2ccccc2)cc1)OCC	43.3 µM (inactive)	> 100 µM (inactive)	36.4 µM (inactive)	> 100 µM (inactive)	> 100 µM (inactive)	> 100 µM (inactive)	> 100 µM (inactive)	> 100 µM (inactive)				> 100 µM	> 100 µM (inactive)	> 100 µM (inactive)	49.9 µM (inactive)	> 100 µM (inactive)	24.8 µM (inactive)	96.4 µM (inactive)	81.5 µM (inactive)	33.8 µM (inactive)
COc1ccc2c(c1)C1Oc3ccccc3CC1(O)CO2 (configuration not stated)	> 100 µM (inactive)	> 100 µM (inactive)	> 100 µM (inactive)	> 100 µM (inactive)	> 100 µM (inactive)	> 100 µM (inactive)	> 100 µM (inactive)	> 100 µM (inactive)		> 100 µM (inactive)	> 100 µM (inactive)	> 100 µM	> 100 µM (inactive)	> 100 µM (inactive)	> 100 µM (inactive)	> 100 µM (inactive)	> 100 µM (inactive)	> 100 µM (inactive)	> 100 µM (inactive)	> 100 µM (inactive)
CC(C)(C)C1CCC2c3c([nH]c4ccccc34)C3C(=O)N(c4ccccc4[N+](=O)[O-])C(=O)C3C2C1 (configuration not stated)	17.5 µM (inactive)	7.48 µM (inactive)	> 10 µM (inactive)	13.8 µM (inactive)	16.4 µM (inactive)	4.14 µM (inactive)	9.1 µM (inactive)		11.7 µM (inactive)	14.6 µM (inactive)	11.9 µM (inactive)	11.2 µM	16 µM (inactive)	5.66 µM (inactive)	13 µM (inactive)	15.5 µM (inactive)	1.71 µM (inactive)		7 µM (inactive)	
